Measured values from EP4613269A1, “RIFAXIMIN FOR USE IN TREATING SARCOPENIA IN PATIENTS WITH LIVER DISEASE” (priority 2024, dated 2025).

How the values were obtained:
[1] = Retrospective cohort study: skeletal muscle area (SMA) at L3 from serial abdominal CT scans; assay type: in vivo, human; settings: for Follow-up skeletal muscle area: Median (IQR) at second CT scan, rifaximin N = 63 (with lactulose), lactulose alone N = 79; for median change in SMA: between first and second abdominal CT scan (3-9 months apart), patients with cirrhosis and HE, rifaximin 550 mg twice daily orally with lactulose vs lactulose monotherapy
Excerpt: (§1) This study is a single-centre retrospective cohort study of patients treated with lactulose or rifaximin with lactulose, under the care of the liver transplant service in Melbourne, Australia, between 2009 and 2022. The primary outcome measure was a change in muscle mass over time between the rifaximin versus non-rifaximin treated cohort. Secondary outcomes included. Clostridium difficile infection and mortality.
(§2) All adult patients (age >18 years) with cirrhosis and documented clinically apparent hepatic encephalopathy (HE) known to the Victorian liver transplant service were considered for analysis. Inclusion criteria required patients to have had serial abdominal CT scans at least 3 months and at most 9 months apart during their time on the liver transplant waitlist to allow for comparison of muscle mass over time. Rifaximin became widely available as a treatment of HE on the Pharmaceutical Benefits Scheme in Australia in January 2014. Therefore, patients on lactulose monotherapy (January 2009 to December 2013) were compared to those receiving rifaximin with lactulose (January 2014 to July 2022). Patients were orally administered 550 mg of rifaximin (alpha) twice daily. Lactulose treatment for HE was under standard conditions, i.e. lactulose administration in syrup form at a dose of 15 to 30 mL two to four times a day to aim for two semisoft stools per day. Patients otherwise received standard of care management of cirrhosis including nutritional advice from an experienced liver dietitian.
Muscle mass data was calculated from CT scans performed at two time-points in the patient journey to determine progress and change of outcomes. The first time-point for data collection, including for demographics and blood parameters, was time of first CT. The second time-point for data collection was collected between three to nine months following the first time point when the follow up CT was performed.
SMA was measured using the cross-sectional area of the abdominal muscles at the third lumbar vertebrae (L3) using CoreSlicer (^©2018), a web-based program for accurate measurement of body composition, verified for this purpose (Mullie & Afilalo "CoreSlicer: a web toolkit for analytic morphomics" BMC Med. Imaging (2019), 19(1): 15).
Statistical analysis was performed using R version 4.1.1. Subgroups were compared by χ^2 test for categorical variables and Student's t-test or Wilcoxon rank sum test for parametric and non-parametric continuous variables, respectively. Linear regression models (analysis of covariance) were used to assess the impact of clinical variables on muscle endpoints. […]
Averages were expressed as mean ± standard deviation for normally distributed variables, and as medians ± IQR for non-normally distributed variables.

[2] = Retrospective cohort study: clinical outcomes (transplant outcome, mortality, Clostridium difficile infection); assay type: in vivo, human; settings: for Transplant outcome: Died on list: died awaiting transplantation; for episodes of Clostridium difficile infection: during study follow-up; for Transplant outcome: Delisted / Transplant outcome: Rejected / Transplant outcome: Transplanted: liver transplant waitlist patients with cirrhosis and HE; for median time to death from listing: patients who died awaiting transplant; for Median time-to-transplant: transplanted patients
Excerpt: as §1, §2
Included data comprised baseline demographics (age, gender, aetiology of liver disease, body mass index (BMI)); disease assessment at workup (Sodium Model of End-Stage Liver Disease (NaMELD)), Child-Pugh-Turcotte (CTP) score; sarcopenia assessment (skeletal muscle area (SMA, cm^2)) from single slice CT scan, sepsis (hospitalisation data for infective complications, episodes of spontaneous bacterial peritonitis); rifaximin complications (Clostridium difficile infections); and mortality and transplantation outcome data.
Patients were followed up until: end outcomes occurred; delisting from service; rejected prior to formal transplant workup; death prior to transplant; or liver transplantation.

Row | SMILES | Follow-up skeletal muscle area [1] | median change in SMA [1] | Transplant outcome: Died on list [2] | episodes of Clostridium difficile infection [2] | Transplant outcome: Delisted [2] | Transplant outcome: Rejected [2] | Transplant outcome: Transplanted [2] | median time to death from listing [2] [days] | Median time-to-transplant [2] [days] | Transplant outcome: Died on list ([2]; listed as lactulose)
1 | CO[C@H]1/C=C/O[C@@]2(C)Oc3c(C)c(O)c4c(O)c(c5c(nc6cc(C)ccn65)c4c3C2=O)NC(=O)/C(C)=C\C=C\[C@H](C)[C@H](O)[C@@H](C)[C@@H](O)[C@@H](C)[C@H](OC(C)=O)[C@@H]1C [Rifaximin, 4-deoxy-4'-methylpyrido[1',2'-1,2]imidazo-[5,4-c] rifamycin SV] | 162 (134, 190) cm^2 | +0.74 cm^2 | 2 (3.4%) n (%) | one | 4 (6.9%) n (%) | 1 (1.7%) n (%) | 51 (88%) n (%) | 265.5 | 353 | 
2 | OC[C@H]1O[C@@H](O[C@@H]2[C@@H](CO)OC(O)(CO)[C@H]2O)[C@H](O)[C@@H](O)[C@H]1O (mixture of isomers) [Lactulose alone, Lactulose] | 159 (137, 174) cm^2 | -6.9 cm^2 | 5 (6.5%) n (%) | none | 15 (19%) n (%) | 0 (0%) n (%) | 57 (74%) n (%) | 282 | 312.5 | 5 (6.5 %) n (%)
